In patent US9408832B2, “LIM kinasemodulating agents for neurofibromatoses therapy and methods for screening for same” (University of Central Florida Research Foundation, Inc., priority 2012, dated 2016):
Where “and” joins values, the source holds several entries; their conditions need not be identical. Identical values can stand only once. Entries after “also recorded” stand apart in the source; their conditions may differ.

Experiments:
[1] = tested on: mouse merlin-null Schwann cells; assay: Violet Ratiometric membrane asymmetry / dead cell apoptosis flow cytometry assay; assay type: cell-based; settings: 24 hours
Description: (§1) FIGS. 10 A-C. Phenotypic Apoptosis Assays. (A). Merlin-null Schwann cells in a 384-well format were incubated with the indicated compounds for 8 hours. Caspase-3/7 activity was measure with Apo-ONE Homogeneous Assay (Promega). n=32 wells. (B). Merlin-null Schwann cells in a 6-well format were treated with compounds (10 uM) for 24 hours. Membrane asymmetry was detected with Violet Ratiometric assay and read on a BD Cantos II flow cytometer. (C). Population distribution for B is shown.
In yet another aspect, compounds may be identified which induce programmed cell death or inhibit proliferation of Merlin-null Schwann cells. Merlin-pathway assays may be conducted to identify the subset of compounds that modulate the activity of known merlin pathways. The effector caspase cascade is activated in many extrinsic and intrinsic cell death pathways^29. […] The effect of compounds on caspase-3 activity can be measured by first lysing the cells and centrifuging to pellet the debris. […] Enzyme activity may be measured on an Envision plate reader at Ex400 nm/Em505 nm. The enzyme activity may be calculated from a standard curve generated using recombinant caspase-3 enzyme (R&D System, Inc.) and expressed as fold-increase in activity. […] Transfer of phosphatidylserine and phosphatidylethanolamine from the inner to the outer leaflet of the plasma membrane changes the membrane potential that is detected by F2N12S. […]

[2] = tested on: mouse merlin-null Schwann cells; assay: BrdU/7-AAD flow cytometry assay; assay type: cell-based
Description: (§2) FIGS. 11A-D. Phenotypic Proliferation Assays. (A) Merlin-null Schwann cells (384-well format) were treated with the indicated compounds and concentrations for 24 hours and labeled with EdU during the last 9 hours. Incorporation of EdU into S-phase cells was read on a Biotek H1 Hybrid reader. (B) The plate was also imaged with a Trophos high resolution fluorescence Plate Runner. (C). […] The cell population profile is shown and was analyzed using the ModFit program. (D). Merlin-null Schwann cells were grown as in C but were labeled with BrdU during the final 3 hours of treatment then stained with 7AAD. The distribution of BrdU- and 7AAD-labelled cells is shown and was analyzed with Diva program. The BD Cantos II flow cytometer was used above.
In yet another aspect, identification of compounds that affect proliferation of Merlin-null mouse Schwann cells can be performed by conducting a Click-iT EdU Microplate Assay (Life Technologies) in the 384 well-plate format and then follow-up with BrdU/7AAD and propidium iodide flow cytometer assays. […] The EdU-Click-iT assay uses a 2-step procedure to identify cells in the S-phase of the cell cycle. EdU (5-ethynyl-2′-deoxyuridine) is a DNA analog that has been modified with an alkyne and is incorporated by cells in S phase. It reacts with Alexa-Fluor-Oregon green azide in the presence of a copper solution to form a covalent bond. Fluorescence emission is measured on a Hybrid HT plate reader (FIG. 11A) as well as on a Trophos Plate RUNNER HD that captures images of the wells (FIG. 11B). This allows confirmatory cell counts to be obtained. Cell cycle profiles were collected using propidium iodide (PI) labeling of log-phase growing Merlin-null Schwann cells (FIG. 11C). The results were confirmed by acquiring the ratio of BrdU-positive to total 7AAD-labelled cells in an independent assay (FIG. 11D).

[3] = tested on: caspase 3/7 activity; assay: Caspase-3/7 activity (Apo-ONE Homogeneous Assay) in merlin-null Schwann cells; assay type: cell-based, mouse; settings: for mechanism of apoptotic death in context of the Apo-One assay result: 384-well format, 8 hours
Description: as §1
In yet another aspect, compounds may be identified which induce programmed cell death or inhibit proliferation of Merlin-null Schwann cells. Merlin-pathway assays may be conducted to identify the subset of compounds that modulate the activity of known merlin pathways. The effector caspase cascade is activated in many extrinsic and intrinsic cell death pathways^29. The CPCCG has an established HTS assay that measures caspase-3 activity based on the cleavage and enzymatic degradation of a fluorescent substrate containing the amino acid motif DEVD (DEVD-7-amino-4-trifluoromethyl coumarin, DEVD-AFC). Briefly, Merlin-null Schwann cells may be dispensed and test compounds added, and incubated as described for the primary screening assay. The effect of compounds on caspase-3 activity can be measured by first lysing the cells and centrifuging to pellet the debris. Next, 20 μl of 2× reaction buffer may be added, followed by 1 μL, DTT (0.01M final). Finally, 1uL of DEVD-AFC may be added and the plate may be incubated at 37° C. for 1.5 h. Enzyme activity may be measured on an Envision plate reader at Ex400 nm/Em505 nm. The enzyme activity may be calculated from a standard curve generated using recombinant caspase-3 enzyme (R&D System, Inc.) and expressed as fold-increase in activity. […] Transfer of phosphatidylserine and phosphatidylethanolamine from the inner to the outer leaflet of the plasma membrane changes the membrane potential that is detected by F2N12S. […]

[4] = tested on: mouse merlin-null Schwann cells; assay: MultiTox-Fluor cell viability assay with merlin-null Schwann cells (NF2-MTC)
Description: To ascertain whether this cell line was amenable to a HTS platform, the present inventors tested cell adherence and growth on several types of 384-well plates. Wells were seeded at varying cell densities (2,500-20,000 cells/well) and the ratio of live:dead cells was measured 24 hours later using the MultiTox-Fluor Multiplex Cytotoxicity Assay (Promega). This assay uses fluorescent probes to measure protease activities from live and dying cells. […] Therefore, the DMSO concentration for screening will be maintained at 0.5%.

[5] = tested on: cofilin phosphorylation (substrate for LIMK); assay: Western blot of cofilin phosphorylation in normal rat Schwann cells; assay type: cell-based; settings: 6 hours
[6] = tested on: mouse merlin-null Schwann cells; assay: Propidium iodide flow cytometry cell cycle assay; assay type: cell-based
Description: as §2
In yet another aspect, identification of compounds that affect proliferation of Merlin-null mouse Schwann cells can be performed by conducting a Click-iT EdU Microplate Assay (Life Technologies) in the 384 well-plate format and then follow-up with BrdU/7AAD and propidium iodide flow cytometer assays. […] The EdU-Click-iT assay uses a 2-step procedure to identify cells in the S-phase of the cell cycle. […] Fluorescence emission is measured on a Hybrid HT plate reader (FIG. 11A) as well as on a Trophos Plate RUNNER HD that captures images of the wells (FIG. 11B). […]

[7] = tested on: cofilin phosphorylation; assay: Cofilin phosphorylation in mouse Schwann cells (summary statement); assay type: cell-based
[8] = tested on: mouse merlin-null Schwann cells; assay: Crystal Violet cell number assay; assay type: cell-based
[9] = 5 μM, 24 hr, BrdU for the last 3 hr

For `COc1ccc2c(c[n+](C)c3c4cc5c(cc4ccc23)OCO5)c1OC.[Cl-]` [CHE, cheleryithrine chloride], the “apoptotic death (Q1+Q3), share of Merlin-null Schwann cells” value ([1]; 10 uM, 6-well format, flow cytometer) was 93%.

In the case of `N#C/C(=C\c1ccc(-c2cc(Cl)ccc2Cl)o1)C(=O)Nc1cccc2ncccc12` [AGK2], the “anti-proliferative effects on the cells” value ([2]; 24 hours of drug treatment, S-phase labelling for the final 3 hours) is reported as “did not reveal clear anti-proliferative effects” and the “mechanism of apoptotic death in context of the Apo-One assay result” value [3] is reported as “caspase3/7-independent”.

In the case of `CO[C@H]1C[C@@H]2CC[C@@H](C)[C@@](O)(O2)C(=O)C(=O)N2CCCC[C@H]2C(=O)O[C@H]([C@H](C)C[C@@H]2CC[C@@H](O)[C@H](OC)C2)CC(=O)[C@H](C)/C=C(\C)[C@@H](O)[C@@H](OC)C(=O)[C@H](C)C[C@H](C)/C=C/C=C/C=C/1C` [rapamycin, Rapamycin], the “viability of cells, % of the DMSO control” value ([4]; 50 μM rapamycin, 384-well plate, 5,000 cells/well) is reported as 20+/−1.4%.

In the case of `CC(C)C(=O)Nc1ncc(-c2cc(C(F)F)nn2-c2c(Cl)cccc2Cl)s1` [BMS-5], the “number of cells with plasma membrane asymmetry” value ([1]; 2 μM) is reported as “does not significantly increase”, the “cells in G0/G1 and S phase” value [2, 9] is reported as “massive depletion” and the “number of cells in G2/M” value [2, 9] is reported as “moderate increase; also recorded: moderately increase”. For the same molecule, the IC50 ([5]; Western blot, read-out: amount needed to reduce cofilin phosphorylation by 50% of the untreated control) was 0.2 µM, the “cofilin phosphorylation (dose response, in words)” value ([5]; increasing BMS-5) was “reduces the amount of cofilin phosphorylation; also recorded: cofilin phosphorylation decreases” and the “increase of cells in G2/M phase” value ([6]; 5 μM, 17 hr, Propidium Iodine staining) was “more than 100%”. For the same molecule, the “cell cycle profile (PI labeling and BrdU profiles, in words)” value ([6]; 5 uM, 22 hours) was “accumulate in G2/M”, the “cofilin phosphorylation in mouse Schwann cells (in words)” value [7] was “reduced cofilin phosphorylation” and the “mechanism of apoptotic death in context of the Apo-One assay result” value [3] was “caspase3/7-independent”. The “difference in caspase 3/7 activity versus untreated or DMSO controls” value ([3]; 8 hours incubation, increasing doses) was “no significant difference”, the “change in the number of cells after 72 hours” value ([8]; 2 μM) was “no change” and the “cell number compared to untreated or DMSO controls” value ([8]; 1 and 2 μM, 72 hours) was “decrease in the cell number”. For the same molecule, the “MTC number / proliferation with increasing concentration (in words)” value ([4]; 24 hours, various inhibitor concentrations) was “inhibited proliferation; also recorded: dose-respondent inhibition”, the “MTC viability compared to DMSO control (in words)” value ([4]; BMS-5 5 μM, 24 hours) was “reduced MTC viability” and the EC50 ([4]; read-out: EC50: concentration that reduces the number of merlin-null Schwann cells by 50% of control, 24 hours, 96-well format, 32 replicates/concentration) was 1.96 µM and ~2 µM.

With `FC(F)(F)c1ccc(/C=C/c2nc(COc3ccc(CCCCn4ccnn4)cc3)co2)cc1` [TAK 165] the “MTC viability compared to DMSO control (in words)” value ([4]; TAK 165 50 nM, positive control) was “effective in reducing MTC viability”.
